How the values were obtained:
THP-1 cells = experiment: IL-12 p40 release from THP-1 cells (ELISA); format: cell-based, human; settings: FIG. 14; with and without PMA (0.1 ng/ml); 2% serum media; IFNγ (20 ng/ml); two days
Excerpt: (§1) PBMC were obtained from healthy adult volunteers of both sexes on Ficoll Hypaque density gradients and cultured in complete medium consisting of RPMI 1640 and 10% FBS. THP-1 is a human monocytic leukaemia cell line. Compared to other human myeloid cell lines, such as HL-60 and U937, THP-1 cells express CD1d on their surfaces. Because of this characteristic, the THP-1 cell line provides a valuable model for studying the mechanism involved in CD1d crosslinking by measuring the IL-12 and phospho kinases in the cell. THP-1 cells was cultured in complete medium consisting of RPMI 1640 and 10% FBS.
For the activation of these target cells, an anti-CD1 antibody was bound to a plate and then incubated with the cells. In particular, […] were coated with 10 μg/ml protein G overnight at 4° C. Wells were washed with PBS and blocked with BSA at room temperature for four hours. Antibody (10 μg/ml) was added to each well for four hours at room temperature. […]
(§2) To measure the increase induction of IL-12 production by an anti-CD1 antibody, the concentrations of P40 and P70 forms of IL-12 in cultured supernatants were measured with a standard sandwich ELISA technique using combinations of monoclonal antibodies to different epitopes of each cytokine (FIGS. 4-22).

antigen presenting cells = experiment: Induction of IL-12 production by antigen presenting cells / monocytes in vitro; format: cell-based
Excerpt: as §1
(§3) For the activation of these target cells, an anti-CD1 antibody was bound to a plate and then incubated with the cells. In particular, […] were coated with 10 μg/ml protein G overnight at 4° C. Wells were washed with PBS and blocked with BSA at room temperature for four hours. Antibody (10 μg/ml) was added to each well for four hours at room temperature. The wells were washed again to remove the unbound antibodies, and 1.5×10^5 to 2×10^5 cells were added to each well in RPMI 1640 culture media.
as §2

adhered PBMC = experiment: IL-1α release from adhered PBMC; format: cell-based, human
Excerpt: as §1, §3

CCCCCCCCCCCCCC(=O)O[C@@H]1[C@@H](C)[C@@]2(O)[C@@H](C=C(CO)C[C@]3(O)C(=O)C(C)=C[C@@H]23)[C@@H]2C(C)(C)[C@]12OC(C)=O [PMA]
effect of PMA on IL-12 p40 released from THP-1 cells (THP-1 cells): no significant differences

IFNγ: cytokine
effect of cytokine on anti-CD1 antibody enhanced production of IL-12 (antigen presenting cells): increased the ability of anti-CD1 antibodies to enhance production of IL-12

lipopolysaccharide [LPS]
induction of IL-1 relative to 51.1 anti-CD1 antibody (adhered PBMC): more potent inducer of IL-1 | levels of IL-12 stimulated relative to 51.1 anti-CD1 antibody (antigen presenting cells): comparable or lower levels of IL-12

B1: IL-4: cytokine (protein, UniProt P05112 25-153, looked up)
Interleukin-4: HKCDITLQEIIKTLNSLTEQKTLCTELTVTDIFAASKNTTEKETFCRAATVLRQFYSHHEKDTRCLGATAQQFHRHKQLIRFLKRLDRNLWGLAGLNSCPVKEANQSTLENFLERLKTIMREKYSKCSS
effect of cytokine on anti-CD1 antibody enhanced production of IL-12 (antigen presenting cells): increased the ability of anti-CD1 antibodies to enhance production of IL-12

From patent US8084020B2, “Use of anti-CD1 antibodies for the modulation of immune responses” (Beth Israel Deaconess Medical Center, priority 2002, dated 2011)
